Reference: patent US12053480B2, “Methods and pharmaceutical compositions for treating peripheral demyelinating diseases” (INSERM (INSTITUT NATIONAL DE LA SANTE ET DE LA RECHERCHE …, priority 2015, dated 2024)

Experiments:
[1] = system: myelinating Schwann cells; assay: mSC demyelination morphology (confocal microscopy) four days after nerve crush; type: in vivo, mouse; conditions: for number of myelinating cell remaining after crush: four days after crush
Method: (§1) Mice were anesthetized with isoflurane inhalation and placed under a Stemi2000 microscope (Zeiss). Incision area was shaved and cleaned using betadine solution. After incision, the gluteus superficialis and biceps femoris muscles were separated to reveal the cavity traversed by the sciatic nerve. The nerve was lift out using spatula and a thin glass needle filled with viral solution (8 μl) was introduced into the nerve with a micromanipulator. This solution was injected over 30 min with short pressure pulses using a Picospritzer III (Parker Hannifin) coupled to a pulse generator. After injection, the nerve was replaced into the cavity, the muscles were readjusted, and the wound was closed using clips (for further details see Gonzalez et al., 2014^3).
(§2) TRO19622 drug (Tocris bioscience, Ref. 2906) was diluted in ethanol to 20 mM and then, the solution was diluted in sterile PBS to 20 μM. TRO19622 treatments were realized by 3 mg/kg intraperitoneal (IP) injections of 20 mM solution or by intra sciatic nerve injections of 2 μl of drug solution 2 μM using a Hamilton syringe or a glass needle in sterile conditions 30 minutes before multiphoton image acquisitions or immunohistochemistry and demyelination studies respectively. Methyl jasmonate drug (Sigma-Aldrich, Ref. 392707) was diluted in 1 ml of sterile PBS to 1M or 3M. Methyl jasmonate treatments were realized by intra sciatic nerve injections of 1 μl of drug solution using a glass needle and micromanipulator in sterile conditions following the same virus injections procedure (see in vivo virus injection in the sciatic nerve method) two hours before multiphoton image acquisition. […] All drug concentrations were previously evaluated by Bordet et al, 2007^5; Goldin et al, 2008^6; Sharov et al, 2007^7.
Finally we also investigated the demyelination using typical defects induced in the cellular morphology of mSC. Nerves expressing control or VDAC1 shRNAs were crushed to induce demyelination and four days later, when demyelination is maximal, we analyzed the morphology of VDAC1-silenced mSC using confocal microscopy as described previously^19. mSC display long homogenous noodle-like morphology with a regular diameter but during demyelination, they acquire a heterogeneous morphology often alterning large structures (myelin ovoids) with thin processes and their extremities split in fine extensions.

[2] = target: T1, VDAC1 (Mus musculus, UniProt Q60932); assay: Mitochondrial calcium imaging (mito-GCaMP2, multiphoton) in mSC of mouse sciatic nerve, nerve crush model; type: in vivo; conditions: for mitochondrial calcium release in mSC after nerve crush: mito-GCaMP2, VDAC1 silenced or drug given before crush; for mSC mitochondria calcium concentration: non-crushed nerves, two hours after injections, compared to vehicle injection
T1 construct: strongly expressed in mSC mitochondria; from tissue; host or cells: myelinating Schwann cells (mSC) of the sciatic nerve of living mice (wild type; db/db and +/db in A10)
Method: as §1, §2
(§3) First injected mouse was anesthetized with 5% of isoflurane a 1.5% of oxygen into the anesthesia system box (World Precision Instruments, Ref. EZ-B800) for 5 minutes. Anesthesia controls were realized^8. Then, mouse was placed in anesthesia mask and the incision area was shaved and cleaned with betadine and ethanol 70% solution. Incision was realized using a scalpel and the skin was retracted using forceps in order to expose the gluteus superficialis and bleeps femoris muscles. Next, the connective tissue that connects both muscles was cut and the sciatic nerve was gently lifted out using a spatula. A flexible bridge was slide below sciatic nerve and it was placed into a plastic first pool fixed to the bridge. Mouse was placed under the multiphoton microscope, the bridge was fixed using magnetic brackets to avoid physiological movement and mouse legs were fixed using clippers. Microscope dark box temperature is controlled to 37° C. during all time-lapse imaging. Finally, a second pool was fixed to the first pool using a drop of agarose low melting 3% (Promega, Ref. V2111) in Leibovitz's L15 medium (Gibco Life Technologies) and filled with deionized water to immerse the objectives 20× or 63× (Carl Zeiss Microscopy).
(§4) All time-lapse images were obtained with a multiphoton microscope Zeiss LSM 7 MP OPO. Mitochondria motility images were acquired by time-lapse recording of one image every five minutes during five hours at 920 nm. GCaMP2 and SypHer probe images were acquired by time-lapse recording of one image every fifteen minutes during five hours at 985 nm. Images were acquired to constant 1% of laser intensity to 100 msec of acquisition time with 512×512 resolution and 10 images of z-stack of 20 μm. Images were saved in Zeiss .czi format and processed using Image J program. For further details see Gonzalez et al., 201X^8
To characterize mitochondria physiology during the demyelination process we combined two in vivo methods. We used the nerve crush model to reliably induce demyelination in the mouse sciatic nerve and a viral approach^19 allowing the expression of different fluorescent probes selectively into mitochondria of myelinating Schwann cells (mSC) in mouse sciatic nerve.

[3] = system: mSC mitochondria; assay: Mitochondrial motility imaging (mito-dsRed2) in mSC of mouse sciatic nerve; type: in vivo; conditions: for loss of mitochondrial motility after nerve crush: 5 hours after nerve injury, TRO19622 30 minutes before crush
Method: as §1, §2, §3
All time-lapse images were obtained with a multiphoton microscope Zeiss LSM 7 MP OPO. Mitochondria motility images were acquired by time-lapse recording of one image every five minutes during five hours at 920 nm. GCaMP2 and SypHer probe images were acquired by time-lapse recording of one image every fifteen minutes during five hours at 985 nm. Images were acquired to constant 1% of laser intensity to 100 msec of acquisition time with 512×512 resolution and 10 images of z-stack of 20 μm. […]

[4] = target: T1, VDAC1; assay: Cytoplasmic calcium imaging (GCaMP2, multiphoton) in mSC of mouse sciatic nerve; type: in vivo; conditions: for presence of cytoplasmic calcium in mSC after crush: cytoplasmic GCaMP2, after nerve crush
Method: as §1, §2, §3, §4
To characterize mitochondria physiology during the demyelination process we combined two in vivo methods. We used the nerve crush model to reliably induce demyelination in the mouse sciatic nerve and a viral approach^19 allowing the expression of different fluorescent probes selectively into mitochondria of myelinating Schwann cells (mSC) in mouse sciatic nerve. […]

[5] = system: phospho-c-jun; assay: Immunohistochemistry of nuclear phospho-c-jun in mSC after nerve crush or MJ; type: in vivo, mouse; conditions: for nuclear phospho-c-jun in mSC after nerve crush: immunohistochemistry, TRO19622 30 minutes prior crush
Method: The dissected nerve was washed in L15 medium, fixed in Zamboni's fixative (Stefanini et al., 1967^4) for 10 min at room temperature, washed in PBS, and incubated in successive glycerol baths (15, 45, 60, 66% in PBS) for 18 to 24 h each before freezing at −20° C. The nerves were cut in small pieces in 66% glycerol and the perineurium sheet removed. Small bundles of fibers were teased in double-distilled water on Superfrost slides, dried overnight at room temperature, and the slides stored at −20° C. For immunostaining, the teased fibers were incubated for 1 h at room temperature in blocking solution (10% goat serum, 0.2% TritonX100, and 0.01% sodium azide in PBS). Then, the samples were then incubated with anti-ECCD2 primary mouse antibody (1/100, BD biosciences, Ref. 610181), anti-phosphoS63-c-jun primary mouse antibody (1/200, BD Biosciences, Ref. 558036), anti-c-jun primary mouse antibody (1/200, BD Biosciences, Ref. 610326), anti-VDAC primary rabbit antibody (1/100, Cell Signaling, Ref. 4866) or/and MitoTracker Red (1/1000, Molecular Probes, Ref. M7515) in blocking solution overnight at 4° C. The next day, the samples were washed in PBS and incubated for 1 h at room temperature with secondary donkey antibodies coupled to Alexa488, Alexa 594 or Alexa647 (1/1600, Molecular probes) and TO-PRO-3 iodide (50 μM, Invitroge, Ref. T3605). Finally the samples were washed in PBS and mounted in Immu-mount (Thermo Scientific). Images were acquired at room temperature using a 20× or 40× objective, a Zeiss confocal microscope LSM710, and its associated software.
as §2
To go further we also selectively silenced VDAC1 in mSC and measured the expression level of nuclear phospho-c-jun by immunohistochemistry after nerve crush. […]

[6] = system: mSC mitochondria; assay: Mitochondrial pH imaging (mito-SypHer) in mSC of mouse sciatic nerve; type: in vivo
Method: as §1, §2
First injected mouse was anesthetized with 5% of isoflurane a 1.5% of oxygen into the anesthesia system box (World Precision Instruments, Ref. EZ-B800) for 5 minutes. Anesthesia controls were realized^8. Then, mouse was placed in anesthesia mask and the incision area was shaved and cleaned with betadine and ethanol 70% solution. […]

[7] = system: phospho-bcl2, cleaved caspase-3; conditions: after MJ treatment
Method: To investigate the signaling pathways induced by mitochondrial calcium release, sciatic nerves were treated with vehicle or TRO19622 before crush or with MJ without crush and phosphorylation-activated pathways were determined by western blot 4 hours or 12 hours after nerve crush or MJ treatment. […] While it is known that SC demyelination is not due to cell death but to a dedifferentiation process, we nevertheless checked mitochondria-related cell death factors in crushed or MJ treated nerves.

[8] = system: phospho-ERK1/2, phospho-p38, phospho-JNK and phospho-c-jun; assay: Western blot of demyelination signaling pathways in sciatic nerve after crush or MJ; type: in vivo, mouse; conditions: nerves not crushed; 4 or 12 hours after treatment
Method: as §2

T1 sequence (Q60932 14-296): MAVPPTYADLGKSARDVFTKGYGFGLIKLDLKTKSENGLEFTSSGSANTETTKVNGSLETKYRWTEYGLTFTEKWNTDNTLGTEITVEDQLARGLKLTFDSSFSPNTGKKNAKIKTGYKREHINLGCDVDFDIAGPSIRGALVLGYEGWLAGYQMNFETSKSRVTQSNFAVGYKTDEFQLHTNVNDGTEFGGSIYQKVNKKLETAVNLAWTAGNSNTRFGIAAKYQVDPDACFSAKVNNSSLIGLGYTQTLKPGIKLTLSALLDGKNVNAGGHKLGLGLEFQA

Row | Compound | number of myelinating cell remaining after crush [1] | mitochondrial calcium release in mSC after nerve crush [2] | mitochondrial calcium release in mSC after nerve crush ([2]; listed as VDAC shRNA3) | loss of mitochondrial motility after nerve crush [3] | changes induced by nerve crush in mitochondrial motility not abrogated ([3]; after nerve crush) [%] | part of the calcium appearing in the cytoplasm after nerve crush that is not abolished (non-mitochondrial origin) ([4]; after nerve crush with VDAC1 silenced or blocked) [%] | presence of cytoplasmic calcium in mSC after crush [4] | nuclear phospho-c-jun in mSC after nerve crush [5] | changes induced by nerve crush in mitochondrial pH not abrogated ([6]; after nerve crush) [%] | number of demyelinating cells ([1]; non-crushed sciatic nerves) | mSC mitochondria calcium concentration [2] | mSC mitochondria calcium concentration ([2]; listed as methyl jasmonate) | phospho-bcl2 and cleaved caspase-3 levels [7] | mitochondrial motility ([3]; without crush) | phosphorylation-activated pathways and phospho-c-jun [8] | calcium presence in the cytoplasm ([4]; MJ treatment, non-crushed nerves) | nuclear phospho-c-jun ([5]; nerves treated with MJ) | mitochondrial pH ([6]; non-crushed nerves)
1 | VDAC1 shRNA3: VDAC1 shRNA sequence 3 ACCAGGTATCAAACTGACGTTCT (Sigma-Aldrich, Ref. #TRCN0000012392), expressed from AAV vector (expressed from AAV vector) | significant increase | completely inhibited | completely abolished | significantly prevented | 20 | 13 | strongly reduced | strong reduction | 12 | – | – | – | – | – | – | – | – | –
2 | VDAC1 shRNA2: VDAC1 shRNA sequence 2 GTTGGCTATAAGACGGATGAACT (Sigma-Aldrich, Ref. #TRCN0000012391), expressed from AAV vector (expressed from AAV vector) | significant increase | significantly reduced | – | significantly prevented | – | – | more modest | strong reduction | – | – | – | – | – | – | – | – | – | –
3 | CC/C=C\CC1C(=O)CCC1CC(=O)OC (centres unmarked) [MJ, methyl jasmonate] | – | – | – | – | – | – | – | – | – | significant increase | sharply decreased | induced mitochondrial calcium release | Neither phospho-bcl2 nor cleaved caspase-3 levels were increased | decreased | significant increase | increased | robust increase | increase
